Assays:
[1] = target: T1, 5-HT1A serotonin receptor (Rattus norvegicus, UniProt P19327); test: 5-HT1A receptor binding, displacement of ^3 H-8-OH DPAT
T1 construct: 44, 1685-1696 (1985); from tissue
T1 sequence (P19327 1-422): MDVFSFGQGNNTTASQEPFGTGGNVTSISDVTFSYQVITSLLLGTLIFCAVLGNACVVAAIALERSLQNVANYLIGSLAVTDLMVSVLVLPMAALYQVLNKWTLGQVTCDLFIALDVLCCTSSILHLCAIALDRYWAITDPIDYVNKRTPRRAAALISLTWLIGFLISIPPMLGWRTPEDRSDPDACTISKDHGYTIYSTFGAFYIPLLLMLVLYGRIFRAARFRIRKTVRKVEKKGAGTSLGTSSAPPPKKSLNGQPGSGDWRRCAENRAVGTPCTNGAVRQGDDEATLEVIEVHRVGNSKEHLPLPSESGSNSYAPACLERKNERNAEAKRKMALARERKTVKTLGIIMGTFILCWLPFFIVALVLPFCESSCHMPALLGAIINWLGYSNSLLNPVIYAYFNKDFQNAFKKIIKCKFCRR
Description: The serotoninergic properties of the compounds of this invention were established by the procedure of Hall et al., J. Neurochem.

[2] = target: T2, limbic D2 (dopamine) receptor (Rattus norvegicus, UniProt P61169); test: D2 receptor affinity, inhibition of ^3 H-spiroperidol (^3 H-spirohaloperidol) binding to limbic brain tissue
T2 construct: from tissue; rat inferred

[3] = tested on: 5-HT2 receptor; test: 5-HT2 inhibition of ^3 H-spiroperidol binding (rat brain cortex homogenate)
Experimental: 5-HT2 inhibition of ^3 H-spiroperidol is determined in an analogous manner, employing rat brain cortex homogenate as the receptor tissue, following a modification of Fields et al., ibid; Yamamura et al., ibid; and Creese et al., Eu. J. Pharmacol. 49, 20 (1978).

[4] = Barone et al., 1986; cited from earlier work

T2 sequence (P61169 whole entry): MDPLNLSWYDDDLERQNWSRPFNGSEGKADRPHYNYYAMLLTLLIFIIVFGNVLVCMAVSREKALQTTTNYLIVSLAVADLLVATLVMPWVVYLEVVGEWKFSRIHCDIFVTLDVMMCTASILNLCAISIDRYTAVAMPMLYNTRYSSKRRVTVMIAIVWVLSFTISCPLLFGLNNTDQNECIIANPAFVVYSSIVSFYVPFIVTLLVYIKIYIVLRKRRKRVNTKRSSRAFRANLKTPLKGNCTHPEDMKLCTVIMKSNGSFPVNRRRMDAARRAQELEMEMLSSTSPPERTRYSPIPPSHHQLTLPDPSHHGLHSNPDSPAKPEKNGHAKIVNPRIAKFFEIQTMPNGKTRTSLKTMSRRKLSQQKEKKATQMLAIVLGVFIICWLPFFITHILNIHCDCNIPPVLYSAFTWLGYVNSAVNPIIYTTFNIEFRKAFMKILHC

Row | inhibition at 1 µM ([1]; ^3 H-8-OH DPAT) [%] | inhibition at 1 µM [2] [%] | Structure (SMILES) | other results
1 | 80 | 67 | O=C(OCCCN1CCN(c2cccc(Cl)c2)CC1)C12CC3CC(CC(C3)C1)C2 [Example 1, Tricyclo[3.3.1.1^3,7]decane-1-carboxylic acid 3-[4-(3-chlorophenyl)-1-piperazinyl]propyl ester] | –
2 | 100 | 90 | COc1ccccc1N1CCN(CCCOC(=O)C23CC4CC(CC(C4)C2)C3)CC1 [Example 3, Tricyclo[3.3.1.1^3,7]decane-1-carboxylic acid 3-[4-(2-methoxyphenyl)-1-piperazinyl]propyl ester] | –
3 | 72 | 39 | CC12CC3CC(C1)CC(CC(=O)OCCN1CCN(c4ncccn4)CC1)(C3)C2 [Example 4, 3-Methyltricyclo[3.3.1.1^3,7]decane-1-acetic acid 2-[4-(2-pyrimidinyl)-1-piperazinyl]ethyl ester] | –
4 | 53 | – | O=C(OCCN1CCN(c2cccc(Cl)c2)CC1)c1cccc2c1Cc1ccccc1-2 [Example 8, 9H-Fluorene-1-carboxylic acid 2-[4-(3-chlorophenyl)-1-piperazinyl]ethyl ester] | –

The remaining lines, values behind:

Row | Structure (SMILES) | inhibition at 1 µM ([1]; ^3 H-8-OH DPAT) [%] | inhibition at 1 µM [2] [%] | other results
5 | O=C1CC2(CCCC2)CC(=O)N1CCCCN1CCN(c2ncccn2)CC1 [Buspirone, reference compound] | – | – | inhibition at 0.001 µM ([1]; read-out: percent inhibition (5-HT1A, ^3 H-8-OH DPAT)): 97%
6 | O=C(OCCN1CCN(c2ncccn2)CC1)C12CC3CC(CC(C3)C1)C2 [Example 2, Tricyclo[3.3.1.1^3,7]decane-1-carboxylic acid 2-[4-(2-pyrimidinyl)-1-piperazinyl]ethyl ester] | – | 26 | Ki ([1]; ^3 H-8-OH DPAT, Ki calculated from IC50 values): 8.5 nM
7 | COc1ccccc1N1CCN(CCOC(=O)c2cccc3c2Cc2ccccc2-3)CC1 [Example 5, 9H-Fluorene-1-carboxylic acid 2-[4-(2-methoxyphenyl)-1-piperazinyl]ethyl ester] | 100 | – | –
8 | O=C(OCCCN1CCN(c2ncccn2)CC1)C12CC3CC(CC(C3)C1)C2 [Example 7, Tricyclo[3.3.1.1^3,7]decane-1-carboxylic acid 3-[4-(2-pyrimidinyl)-1-piperazinyl]propyl ester] | 69 | 33 | –
9 | N#Cc1ccccc1N1CCN(CCOC(=O)C23CC4CC(CC(C4)C2)C3)CC1 [Example 10, Tricyclo[3.3.1.1^3,7]decane-1-carboxylic acid [2-[4-(2-cyanophenyl)-1-piperazinyl]ethyl]ester] | – | 90 | –
10 | O=C(OCCN1CCC(=C(c2ccc(F)cc2)c2ccc(F)cc2)CC1)C12CC3CC(CC(C3)C1)C2 [Example 11, Tricyclo[3.3.1.1^3,7]decane-1-carboxylic acid 2-[4-[bis(4-fluorophenyl)methylene]-1-piperidinyl]ethyl ester] | 95 | 100 | 5HT2 Receptor Binding % Inhibition at 1 μM [3]: 98%
11 | CC12CC3CC(C1)CC(CC(=O)OCCN1CCC(=C(c4ccc(F)cc4)c4ccc(F)cc4)CC1)(C3)C2 [Example 12, Tricyclo[3.3.1.1^3,7]decane-3-methyl-1-acetic acid 2-[4-[bis(4-fluorophenyl)methylene]-1-piperidinyl]ethyl ester] | – | 36 | 5HT2 Receptor Binding % Inhibition at 1 μM [3]: 63%
12 | Cc1nc2sccn2c(=O)c1CCN1CCC(=C(c2ccc(F)cc2)c2ccc(F)cc2)CC1 [Ritanserin] | – | – | clinical efficacy as anxiolytic-antidepressant agents [4]: demonstrated clinical efficacy
